In a melting point compilation (Tetko et al.; mined from patent text by program, amines drawn as free bases though some values may be those of a salt) one finds melting point data, which are given here for 35 molecules.

A word on the melting point: it is the temperature, or range, at which the solid turns liquid. The molecule `CN(c1ccncc1[N+](=O)[O-])n1cccc1C=O` returned a melting point of 101 to 107 °C.
The molecule `COC(=O)c1ccc(Cn2c(C)nc3ccccc32)cc1` had a melting point of 100 to 101 °C.
The figure for `N#Cc1ccc(C#CCCC(=O)O)cc1` is 149 to 152 °C; for `N#Cc1cccc(C=C2c3ccccc3CCc3ccccc32)c1` it is 116 °C.
The result for `O=c1c(CCCc2cncnc2)cc2cccnc2n1-c1cccc([N+](=O)[O-])c1` reads 175 to 176 °C; that for `COC(=O)c1ccc(OCCCc2ccccc2)cc1`, 61 to 61.5 °C.
Regarding `COc1ccc(C2(CF)CCC(=O)CC2)cc1OC1CCCC1`, the melting point was in the range of 72 to 74 °C.
The result for `COC(=O)c1ncn(CCCc2ccc(OCc3coc(/C=C/c4ccccc4)n3)cc2)c1C(=O)OC` reads 85 to 86 °C; that for `CC(C)[C@H]1CC[C@H](O)C=C1S(=O)(=O)c1ccccc1`, 105 °C; that for `CN(C)S(=O)(=O)c1cc(-c2csc(=Nc3ccc(C(F)(F)F)cc3)n2C)ccc1Cl`, 147 to 151 °C.
Regarding `CC(C)(C)C(=O)C(C(O)C(Cl)(Cl)Cl)n1cncn1` (stereo not given), the melting point fell in the range of 220 to 222 °C.
The result for `CCOC(=O)c1cc2c(Cl)cccc2n1CC#N` reads 143 to 144 °C.
The molecule `COc1cc(C=O)ccc1C1OC(CO)C(O)C(O)C1O` (stereo not given) registered a melting point of 188 to 190 °C.
The result for `CCOC(=O)c1cc(F)c2c(c1Cl)C(OCCF)CCS2(=O)=O` (stereo not given) reads 87 to 89 °C.
The result for `c1cnc2ccc(Cn3nnc4ccc(-c5ccc6c(c5)OCO6)nc43)cc2c1` reads 179 to 181 °C; that for `CCOC(=O)CCCC(=O)CNC(=O)c1csc(NC(=O)NCc2ccccn2)n1`, 110 °C; that for `CCn1cnc(N2CCc3ccccc3CC2)c(C#N)c1=O`, 138 to 140 °C.
`CC(=NO)c1ccncc1` came in with a melting point of 154 to 155 °C.
`CC(=O)N(C#N)C1(c2ccc(OCc3ccc4ccccc4n3)cc2)CCCC1` came in with a melting point of 90 °C.
`N#Cc1cc(Cl)c(NC(=O)NC(=O)c2ccccc2Cl)cc1Cl` yielded a melting point of 244 to 247 °C.
`c1cncc(-c2cc(C3CC3)on2)c1` had a melting point of 70 to 73 °C.
The result for `COC(=O)COc1ccc(-c2coc3cc(OCC(=O)OC)ccc3c2=O)cc1` reads 163 to 166 °C; that for `Cc1cc(C)c(C)c(COc2cccc(-c3ccoc3C(=O)NNC(=O)c3ccc(O)c(C#N)c3)c2)c1C`, 210 to 211 °C; that for `CCN1C(=O)C(C)(C)C(=O)N(C)c2cc(CN(CCn3ccc4sccc4c3=O)Cc3cnccc3C)ccc21`, 145 to 147 °C.
The figure for `O=C(Oc1ccc(Cl)cc1Cn1nc(-c2ccc(C(F)(F)F)cc2)oc1=O)c1ccc(CCl)cc1` is 142 to 144 °C.
As for `COC(=O)c1cncc(-c2ccc(OC)c([N+](=O)[O-])c2)c1`, the melting point was in the range of 192 to 194 °C.
As to `CN(C)CCNC1=CC(=O)c2nc(-c3ccc4ccccc4c3)sc2C1=O`, the melting point is 167 to 168 °C.
The figure for `Cc1cccc2c1nc(COc1ccc(Cl)cc1)n2CCC(C)C(=O)Cl` (stereo not given) is 140 to 142 °C.
The result for `COC(C)c1nsc2ccc(-n3c(=O)cc(C(F)(F)F)n(C)c3=O)cc12` (stereo not given) reads 133 to 135 °C; that for `CC(=O)Nc1cccc(-n2cccc2)c1`, 134 to 136 °C.
The result for `COC(=O)c1c(Cl)cc(Cl)cc1NC(=O)CSc1ccc(NC(=S)NCc2ccccc2)cc1` reads 152 to 155 °C.
The molecule `Cn1c(=O)ccc2cc(COc3cccc(C4(C#N)CCOCC4)c3)ccc21` returned a melting point of 149 to 150 °C.
As to `O=Cc1cc(-c2ccccc2)no1`, the melting point fell in the range of 67 to 69 °C.
On to `CCOC(=O)C=CC=Cc1cccc([N+](=O)[O-])c1`, for which the melting point fell in the range of 100 to 101 °C.
The figure for `COc1cc(C2CCN(C[C@H](O)C(F)(F)F)CC2)ccc1Nc1ncc2ccc(-c3ccccc3OC)n2n1` is 77 to 94 °C.
